Laboratory results reported in the supplement of paper PMC13380429.

What was measured:
Conditions in all cases: 72 h
[1] = tested on: Calu-3; test: cell viability relative to DMSO; higher = less toxic
[2] = tested on: HepG2; test: as above
[3] = tested on: Vero E6; test: as above
[4] = tested on: Calu-3; test: relative viability EC50 (midpoint between 100% and the lowest measured viability); higher = less toxic
[5] = tested on: HepG2; test: as above
[6] = tested on: Vero E6; test: as above
[7] = tested on: Calu-3; test: drug sensitivity score (DSS) for viability; higher = more toxic; extreme values may be limits of the assay
[8] = tested on: HepG2; test: as above
[9] = tested on: Vero E6; test: as above
[10] = tested on: U2OS; test: cell viability relative to DMSO; higher = less toxic
[11] = tested on: U2OS; test: relative viability EC50 (midpoint between 100% and the lowest measured viability); higher = less toxic
[12] = tested on: U2OS; test: drug sensitivity score (DSS) for viability; higher = more toxic; extreme values may be limits of the assay
[13] = tested on: Caco-2; test: cell viability relative to DMSO; higher = less toxic
[14] = tested on: Caco-2; test: drug sensitivity score (DSS) for viability; higher = more toxic; extreme values may be limits of the assay
[15] = tested on: Caco-2; test: relative viability EC50 (midpoint between 100% and the lowest measured viability); higher = less toxic

Row | SMILES | cell viability ([1]; 1 nM) [%] | cell viability ([1]; 10 nM) [%] | cell viability ([1]; 100 nM) [%] | cell viability ([1]; 1000 nM) [%] | cell viability ([1]; 10000 nM) [%] | cell viability ([2]; 1 nM) [%] | cell viability ([2]; 10 nM) [%] | cell viability ([2]; 100 nM) [%] | cell viability ([2]; 1000 nM) [%] | cell viability ([2]; 10000 nM) [%] | cell viability ([3]; 1 nM) [%] | cell viability ([3]; 10 nM) [%] | cell viability ([3]; 100 nM) [%] | cell viability ([3]; 1000 nM) [%] | cell viability ([3]; 10000 nM) [%] | relative viability EC50 [4] [nM] | relative viability EC50 [5] [nM] | relative viability EC50 [6] [nM] | drug sensitivity score [7] | drug sensitivity score [8] | drug sensitivity score [9] | cell viability ([10]; 1 nM) [%] | cell viability ([10]; 10 nM) [%] | cell viability ([10]; 100 nM) [%] | cell viability ([10]; 1000 nM) [%] | cell viability ([10]; 10000 nM) [%] | relative viability EC50 [11] [nM] | drug sensitivity score [12] | cell viability ([13]; 1 nM) [%] | cell viability ([13]; 10 nM) [%] | cell viability ([13]; 100 nM) [%] | cell viability ([13]; 1000 nM) [%] | cell viability ([13]; 10000 nM) [%] | drug sensitivity score [14] | relative viability EC50 [15] [nM]
1 | O=C(Nc1cc(-c2ccccc2)nn1-c1ccccc1F)c1ccc([N+](=O)[O-])cc1 [VU1545] | 101 | 97.7 | 92.9 | 98 | 87.5 | 107 | 83.9 | 104 | 89.6 | 97.5 | 111 | 105 | 107 | 108 | 99.9 | > 10000 | > 10000 | > 10000 | 0 | 0 | 0 |  |  |  |  |  |  |  |  |  |  |  |  |  | 
2 | CN(C)N(C)C(=O)[C@@]1(Cc2ccccc2)CCCN(C(=O)[C@@H](Cc2c[nH]c3ccccc23)NC(=O)C(C)(C)N)C1 [anamorelin] | 85.1 | 86.9 | 91.7 | 94.4 | 89.8 | 113 | 99.6 | 106 | 102 | 103 | 103 | 107 | 101 | 104 | 95.4 | > 10000 | > 10000 | > 10000 | 0 | 0 | 0 | 103 | 100 | 104 | 102 | 99.5 | > 10000 | 0 |  |  |  |  |  |  | 
3 | Oc1cc2c(cc1O)CN(C(=S)NCCc1ccc(Cl)cc1)CCC2 [capsazepine] | 107 | 103 | 110 | 104 | 92.6 | 103 | 114 | 107 | 100 | 86.9 | 101 | 101 | 101 | 92.2 | 98.8 | > 10000 | > 10000 | > 10000 | 0 | 0.1 | 0 | 98.2 | 103 | 97.3 | 101 | 97.7 | > 10000 | 0 | 90.9 | 98.4 | 91.2 | 90.2 | 65.8 | 2.5 | 
4 | O=C(c1ccc(F)c(F)c1Nc1ccc(I)cc1F)N1CC(O)([C@@H]2CCCCN2)C1 [cobimetinib] | 93.2 | 86.6 | 81.4 | 50.1 | 32.7 | 94.3 | 86.7 | 32.8 | 24.5 | 17.1 | 90.2 | 86.1 | 72.9 | 50.2 | 45.7 | 238 | 34.1 | 59.1 | 11.9 | 24.5 | 13 | 96.5 | 94.5 | 94.3 | 75.8 | 23.6 | 1430 | 7.4 | 89.5 | 82.8 | 84.8 | 69.1 | 63.1 | 8.3 | 
5 | CN1CCN(c2ccc(C(=O)Nc3n[nH]c4ccc(Cc5cc(F)cc(F)c5)cc34)c(NC3CCOCC3)c2)CC1 [entrectinib] | 96.7 | 95.8 | 98.5 | 76.9 | 1.7 | 104 | 100 | 102 | 71.9 | 0.1 | 98.5 | 101 | 99.4 | 80.5 | 0.3 | 1600 | 1450 | 1760 | 9 | 9.7 | 8.7 |  |  |  |  |  |  |  | 98.7 | 97 | 100 | 81.2 | 5.3 | 8.3 | 1740
6 | NC(=O)NCCN1CCN(c2cccc(C(F)(F)F)c2)CC1 [fluprazine] | 105 | 97.6 | 101 | 91.7 | 99.5 | 93.3 | 112 | 110 | 97.7 | 109 | 103 | 99.5 | 110 | 110 | 104 | > 10000 | > 10000 | > 10000 | 0 | 0 | 0 | 102 | 103 | 94.3 | 101 | 99.9 | > 10000 | 0 | 107 | 86.5 | 85.3 | 96.8 | 72.3 | 2 | 
